Experimental findings from PMC4941342, “Proteasomal degradation of sphingosine kinase 1 and inhibition of dihydroceramide desaturase by the sphingosine kinase inhibitors, SKi or ABC294640, induces growth arrest in androgen-independent LNCaP-AI prostate cancer cells” (Oncotarget, 2016) are described below.

The term IC50 denotes the concentration that gives 50% inhibition.

This assay deals with T1, dihydroceramide desaturase (Des1) (Homo sapiens, UniProt O15121).
T1 construct: gene DEGS1
T1 sequence (O15121 2-323): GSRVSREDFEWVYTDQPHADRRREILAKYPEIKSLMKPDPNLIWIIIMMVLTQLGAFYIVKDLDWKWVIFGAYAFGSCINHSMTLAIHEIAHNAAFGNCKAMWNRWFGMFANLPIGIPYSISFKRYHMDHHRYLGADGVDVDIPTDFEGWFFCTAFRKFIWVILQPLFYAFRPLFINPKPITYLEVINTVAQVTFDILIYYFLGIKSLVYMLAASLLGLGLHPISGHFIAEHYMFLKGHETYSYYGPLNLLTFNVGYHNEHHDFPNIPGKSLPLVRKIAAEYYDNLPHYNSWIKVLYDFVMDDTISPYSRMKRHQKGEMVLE
In words: Des1 activity in intact Jurkat cells labeled with DhCer-C6-NBD, HPLC with fluorescence detection. In kind it is cell-based.

Take `O=C(NCc1ccncc1)C12CC3CC(C1)CC(c1ccc(Cl)cc1)(C3)C2` [ABC294640, 3-(4-chlorophenyl)-adamantane-1-carboxylic acid (pyridin-4-ylmethyl)amide]: the IC50 was 10.2 µM.
Next, `Oc1ccc(Nc2nc(-c3ccc(Cl)cc3)cs2)cc1` [SKi, 2-(p-hydroxyanilino)-4-(p-chlorophenyl)thiazole]: 0.63 to 0.69 µM.
